Common to all, as to format: cell-based
The target in test [1] is T1, KRAS G12V (Homo sapiens, UniProt P01116, G12V).
T1 construct: SW620-KRAS (G12V)-HiBit-KI cell (Pharmaron); host or cells: SW620-KRAS (G12V)-HiBit-KI cells (HiBiT knock-in at the endogenous KRAS locus)
As to the kind of experiment: KRAS G12V HiBit assay. The conditions noted are these: SW620-KRAS (G12V)-HiBit-KI cells, compound treatment for 24 hours, class symbols. The gist of the method:
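HiBiT-tagged KRAS G12V cells treated 24 h with compound in a 3-fold, 10-point series (0.3 mM DMSO stock); lytic HiBiT reagent with LgBiT added after 15 min room-temperature equilibration. Degradation calculated against 0.1% DMSO high control.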

Test [2] has as its target T2, KRAS G12D (Homo sapiens, UniProt P01116, G12D).
T2 construct: AsPc-1-KRAS (G12D)-HiBit-KI cell (Pharmaron); host or cells: AsPc-1-KRAS (G12D)-HiBit-KI cells (HiBiT knock-in at the endogenous KRAS locus)
Description: KRAS G12D HiBit assay. The settings on record: AsPc-1-KRAS (G12D)-HiBit-KI cell, compound treatment for 24 hours; for DC50: absolute DC50. Summed up: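 Cells were treated for 24 h with compounds in a 3-fold, 10-point dilution series from a 0.3 mM DMSO stock, then equilibrated 15 min at room temperature. KRAS G12D HiBiT levels were read by luminescence after lytic Nano-Glo HiBiT reagent with LgBiT; inhibition calculated relative to 0.1% DMSO high control.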

Test [3] has as its target T3, KRAS (Homo sapiens, UniProt P01116).
T3 construct: endogenous in cells; host or cells: KE39 (KRAS amplified) cells
As to the kind of experiment: KRASamp MSD assay. The settings on record: KE39 (KRAS amplified) cells, treated with test compounds for 24 hr, MSD readout of KRAS degradation. The gist of the method: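 KRAS-amplified KE39 cells treated with compound for 24 hr, then lysed in RIPA buffer with protease/phosphatase inhibitors. KRAS protein measured by MSD sandwich immunoassay against a recombinant WT KRAS standard curve; DC50 derived from curve fitting of degradation.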

Setting [4] is: numeric bounds given in place of class symbols.

Each structure is given as a SMILES string.

T2 sequence (P01116 1-188 isoform P01116-2 G12D): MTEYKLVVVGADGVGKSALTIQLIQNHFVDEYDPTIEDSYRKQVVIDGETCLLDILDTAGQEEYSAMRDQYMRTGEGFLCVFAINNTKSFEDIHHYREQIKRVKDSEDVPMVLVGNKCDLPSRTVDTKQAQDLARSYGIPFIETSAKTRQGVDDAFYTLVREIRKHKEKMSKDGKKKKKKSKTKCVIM
T3 sequence (P01116 1-188 isoform P01116-2): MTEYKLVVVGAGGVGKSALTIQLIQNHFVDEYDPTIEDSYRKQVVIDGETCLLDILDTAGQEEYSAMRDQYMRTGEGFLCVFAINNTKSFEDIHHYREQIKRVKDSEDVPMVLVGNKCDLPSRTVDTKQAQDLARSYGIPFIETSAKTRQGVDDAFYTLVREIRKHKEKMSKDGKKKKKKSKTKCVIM
T1 sequence (P01116 1-188 isoform P01116-2 G12V): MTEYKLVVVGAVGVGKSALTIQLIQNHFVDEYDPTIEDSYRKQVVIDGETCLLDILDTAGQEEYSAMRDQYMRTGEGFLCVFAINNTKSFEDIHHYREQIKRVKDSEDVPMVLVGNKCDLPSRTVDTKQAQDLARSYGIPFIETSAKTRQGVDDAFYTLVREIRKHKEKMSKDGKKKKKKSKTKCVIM

In the case of `CCc1c(F)ccc2cc(O)cc(-c3ncc4c(N5CCC[C@@](C)(O)C5)nc(OC[C@@]56CCCN5[C@H](COC(=O)Nc5ccc(N7CCC(c8ccc9c(c8)n(C)c(=O)n9C8CCC(=O)NC8=O)CC7)cc5)CC6)nc4c3F)c12` (stereo partly drawn) [Compound 451, ((3S,7aS)-7a-(((7-(8-ethyl-7-fluoro-3-hydroxynaphthalen-1-yl)-8-fluoro-4-((R)-3-hydroxy-3-methylpiperidin-1-yl)pyrido[4,3-d]pyrimidin-2-yl)oxy)methyl)hexahydro-1H-pyrrolizin-3-yl)methyl (4-(4-(1-(2,6-dioxopiperidin-3-yl)-3-methyl-2-oxo-2,3-dihydro-1H-benzo[d]imidazol-5-yl)piperidin-1-yl)phenyl)carbamate], the results for the DC50 in test [1], in test [2] (class symbols) and in test [3] were < 10 nM, < 100 nM and < 1 nM, respectively.
With `CCc1c(F)ccc2cc(O)cc(-c3ncc4c(N5CCC[C@H](N)C5)nc(OC[C@@]56CCCN5[C@H](COC(=O)N5CCC7(CC5)CC(N5CCC(c8ccc9c(c8)n(C)c(=O)n9C8CCC(=O)NC8=O)CC5)C7)CC6)nc4c3F)c12` (stereo partly drawn) [Compound 477, ((3S,7aS)-7a-(((4-((S)-3-aminopiperidin-1-yl)-7-(8-ethyl-7-fluoro-3-hydroxynaphthalen-1-yl)-8-fluoropyrido[4,3-d]pyrimidin-2-yl)oxy)methyl)hexahydro-1H-pyrrolizin-3-yl)methyl 2-(4-(1-(2,6-dioxopiperidin-3-yl)-3-methyl-2-oxo-2,3-dihydro-1H-benzo[d]imidazol-5-yl)piperidin-1-yl)-7-azaspiro[3.5]nonane-7-carboxylate], the DC50 in test [1] is > 100 nM; in test [2] (setting [4]) it was > 100 nM; in test [3], ≥ 10 nM.
With `CCc1c(F)ccc2cc(O)cc(-c3ncc4c(N5CCC[C@@](C)(O)C5)nc(OC[C@@]56CCCN5[C@H](COC(=O)N5CCC7(CCC(CN8CCC(c9ccc%10c(c9)n(C)c(=O)n%10C9CCC(=O)NC9=O)CC8)CC7)C5)CC6)nc4c3F)c12` (stereo partly drawn) [Compound 457, ((3S,7aS)-7a-(((7-(8-ethyl-7-fluoro-3-hydroxynaphthalen-1-yl)-8-fluoro-4-((R)-3-hydroxy-3-methylpiperidin-1-yl)pyrido[4,3-d]pyrimidin-2-yl)oxy)methyl)hexahydro-1H-pyrrolizin-3-yl)methyl 8-((4-(1-(2,6-dioxopiperidin-3-yl)-3-methyl-2-oxo-2,3-dihydro-1H-benzo[d]imidazol-5-yl)piperidin-1-yl)methyl)-2-azaspiro[4.5]decane-2-carboxylate], the figures for the DC50 in test [1], in test [2] (class symbols) and in test [3] were < 10 nM, < 100 nM and < 1 nM, respectively.
Turning to `CCc1c(F)ccc2cc(O)cc(-c3ncc4c(N5CCCOCC5)nc(OC[C@@]56CCCN5[C@H](COC(=O)N5CCC7(CC5)CC(N5CCC(c8ccc9c(c8)n(C)c(=O)n9C8CCC(=O)NC8=O)CC5)C7)CC6)nc4c3F)c12` (stereo partly drawn) [Compound 489, ((3S,7aS)-7a-(((7-(8-ethyl-7-fluoro-3-hydroxynaphthalen-1-yl)-8-fluoro-4-(1,4-oxazepan-4-yl)pyrido[4,3-d]pyrimidin-2-yl)oxy)methyl)hexahydro-1H-pyrrolizin-3-yl)methyl 2-(4-(1-(2,6-dioxopiperidin-3-yl)-3-methyl-2-oxo-2,3-dihydro-1H-benzo[d]imidazol-5-yl)piperidin-1-yl)-7-azaspiro[3.5]nonane-7-carboxylate], the DC50 in test [1] is < 10 nM; in test [2] (class symbols) it was < 100 nM; in test [3], < 1 nM.
Take `C#Cc1c(F)ccc2cc(O)cc(-c3ncc4c(N5CCC[C@@](C)(O)C5)nc(OCC5(CN6CCN(CC7CCN(c8ccc9c(c8)C(=O)N(C8CCC(=O)NC8=O)C9=O)CC7)CC6)CC5)nc4c3F)c12` (stereo partly shown) [Compound 50]: the DC50 in test [1] was < 10 nM; in test [2] (class symbols) it was < 100 nM; in test [3] it was 1 to 10 nM.
In the case of `CCc1c(F)ccc2cc(O)cc(-c3ncc4c(N5CCC[C@@](C)(O)C5)nc(OC[C@@]56CCCN5[C@H](COC(=O)N5CCN(CC7CCN(c8ccc9c(c8)n(C)c(=O)n9C8CCC(=O)NC8=O)CC7)CC5)CC6)nc4c3F)c12` (stereo partly drawn) [Compound 97, [(3S,8S)-8-[[7-(8-ethyl-7-fluoro-3-hydroxy-1-naphthyl)-8-fluoro-4-[(3R)-3-hydro-xy-3-methyl-1-piperidyl]pyrido[4,3-d]pyrimidin-2-yl]oxymethyl]-1,2,3,5,6,7-hexahydropyrrolizin-3-yl]methyl 4-[[1-[1-(2,6-dioxo-3-piperidyl)-3-methyl-2-oxo-benzimidazol-5-yl]-4-piperidyl]methyl]piperazine-1-carboxylate], the results for the DC50 in test [1], in test [2] (class symbols) and in test [3] were < 10 nM, < 100 nM and < 1 nM, respectively. For the same molecule, the Dmax in test [2] (class symbols) was > 50%.
For `C#Cc1c(F)ccc2cc(O)cc(-c3ncc4c(N5CCC[C@@](C)(O)C5)nc(OC[C@@]56CCCN5[C@H](COC(=O)N5CCC7(CCC(CN8CCC(c9ccc%10c(c9)n(C)c(=O)n%10C9CCC(=O)NC9=O)CC8)CC7)CC5)CC6)nc4c3F)c12` (stereo partly drawn) [Compound 321, ((3S,7aS)-7a-(((7-(8-ethynyl-7-fluoro-3-hydroxynaphthalen-1-yl)-8-fluoro-4-((R)-3-hydroxy-3-methylpiperidin-1-yl)pyrido[4,3-d]pyrimidin-2-yl)oxy)methyl)hexahydro-1H-pyrrolizin-3-yl)methyl 9-((4-(1-(2,6-dioxopiperidin-3-yl)-3-methyl-2-oxo-2,3-dihydro-1H-benzo[d]imidazol-5-yl)piperidin-1-yl)methyl)-3-azaspiro[5.5]undecane-3-carboxylate], the figures for the DC50 in test [1], in test [2] (class symbols) and in test [3] were < 10 nM, < 100 nM and 1 to 10 nM, respectively.
Take `CCc1c(F)ccc2cc(O)cc(-c3ncc4c(N5CCC[C@H](CO)C5)nc(OC[C@@]56CCCN5[C@H](COC(=O)N5CCC(CN7CCC(c8ccc9c(c8)n(C)c(=O)n9C8CCC(=O)NC8=O)CC7)CC5)CC6)nc4c3F)c12` (stereo partly drawn) [Compound 339, ((3S,7aS)-7a-(((7-(8-ethyl-7-fluoro-3-hydroxynaphthalen-1-yl)-8-fluoro-4-((S)-3-(hydroxymethyl)piperidin-1-yl)pyrido[4,3-d]pyrimidin-2-yl)oxy)methyl)hexahydro-1H-pyrrolizin-3-yl)methyl 4-((4-(1-(2,6-dioxopiperidin-3-yl)-3-methyl-2-oxo-2,3-dihydro-1H-benzo[d]imidazol-5-yl)piperidin-1-yl)methyl)piperidine-1-carboxylate]: the values for the DC50 in test [1], in test [2] (setting [4]) and in test [3] were > 100 nM, > 100 nM and 1 to 10 nM, respectively.
As to `CCc1c(F)ccc2cc(O)cc(-c3ncc4c(N5CCCOCC5)nc(OC[C@]56CCCN5[C@H](COC(=O)N5CCC(CN7CCC(c8ccc9c(c8)n(C)c(=O)n9C8CCC(=O)NC8=O)CC7)CC5)CC6)nc4c3F)c12` (stereo partly drawn) [Compound 423, ((3S,7aR)-7a-(((7-(8-ethyl-7-fluoro-3-hydroxynaphthalen-1-yl)-8-fluoro-4-(1,4-oxazepan-4-yl)pyrido[4,3-d]pyrimidin-2-yl)oxy)methyl)hexahydro-1H-pyrrolizin-3-yl)methyl 4-((4-(1-(2,6-dioxopiperidin-3-yl)-3-methyl-2-oxo-2,3-dihydro-1H-benzo[d]imidazol-5-yl)piperidin-1-yl)methyl)piperidine-1-carboxylate], the DC50 in test [1] was < 10 nM; in test [2] (class symbols), < 100 nM; in test [3], < 1 nM.
On the same counts, the results for `C#Cc1c(F)ccc2cccc(-c3ncc4c(N5CCC[C@@](C)(O)C5)nc(OCC5(CN6CCN(CC7CCN(c8ccc9c(c8)C(=O)N(C8CCC(=O)NC8=O)C9=O)CC7)CC6)CC5)nc4c3F)c12` (stereo partly shown) [Compound 55] are > 100 nM, < 100 nM and ≥ 10 nM.
For the molecule `CCc1c(F)ccc2cc(O)cc(-c3ncc4c(N5CCC[C@@](C)(O)C5)nc(OC[C@@]56CCCN5[C@H](CN5CCC7(CC5)CC(N5CCC(c8ccc9c(c8)n(C)c(=O)n9C8CCC(=O)NC8=O)CC5)C7)CC6)nc4c3F)c12` (stereo partly drawn) [Compound 471, 3-(5-(1-(7-(((3S,7aS)-7a-(((7-(8-Ethyl-7-fluoro-3-hydroxynaphthalen-1-yl)-8-fluoro-4-((R)-3-hydroxy-3-methylpiperidin-1-yl)pyrido[4,3-d]pyrimidin-2-yl)oxy)methyl)hexahydro-1H-pyrrolizin-3-yl)methyl)-7-azaspiro[3.5]nonan-2-yl)piperidin-4-yl)-3-methyl-2-oxo-2,3-dihydro-1H-benzo[d]imidazol-1-yl) piperidine-2,6-dione], the values for the DC50 in test [1], in test [2] (class symbols) and in test [3] were > 100 nM, < 100 nM and 1 to 10 nM, respectively.
